The text below walks through data of patent US5096901A, “Pharmacologically active amides and esters containing an azabicycloalkane moiety” (John Wyeth & Brother Limited, priority 1989, dated 1992).

This test deals with T1, 5-HT3 receptors (Rattus norvegicus, UniProt P35563).
T1 sequence (P35563 24-483): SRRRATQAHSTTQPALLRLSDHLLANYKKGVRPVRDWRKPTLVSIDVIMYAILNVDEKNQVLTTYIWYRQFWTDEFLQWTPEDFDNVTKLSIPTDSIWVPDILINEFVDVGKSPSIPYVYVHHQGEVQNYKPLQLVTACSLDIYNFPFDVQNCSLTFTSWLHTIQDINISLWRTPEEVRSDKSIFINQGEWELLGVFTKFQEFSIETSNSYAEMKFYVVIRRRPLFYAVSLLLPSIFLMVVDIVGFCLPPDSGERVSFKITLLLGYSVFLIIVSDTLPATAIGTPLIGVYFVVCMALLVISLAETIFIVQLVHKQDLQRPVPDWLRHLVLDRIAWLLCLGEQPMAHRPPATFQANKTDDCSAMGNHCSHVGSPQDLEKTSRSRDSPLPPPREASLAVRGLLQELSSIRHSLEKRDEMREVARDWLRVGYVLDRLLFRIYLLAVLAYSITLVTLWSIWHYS
Description: The compounds of the invention are tested for 5-HT3 antagonistic activity in the rat vagus by the following procedure:
Segments of the vagus nerve from Sprague-Dawley rats were placed in a perspex chamber and perfused with Krebs solution. Electrodes, positioned at either end of the nerve segment, were used to record the potential differences which ensued upon the addition of various concentrations of 5-HT to one end of the nerve segment. Concentration-response curves to 5-HT were obtained in this manner prior to and following equilibration of the nerve segment with Krebs solution containing the test-substance.

Turning to `CN1[C@@H]2CC[C@H]1C[C@@H](NC(=O)c1cn(C)c3ccccc3c1=O)C2` [Example 1, (Endo)-N-(8-methyl-8-azabicyclo [3.2.1]octan-3-yl)-1,4-dihydro-1-methyl-4-oxoquinoline-3-carboxamide], the Kb was 3.98 nM.
